Eight molecules from ChEMBL document CHEMBL1201862, “PubChem BioAssay data set” (2004) can be followed below.

Structures are written as SMILES.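 Briefly, cells in 96-well plates were exposed to five compound concentrations for 48 h, and endpoints were estimated by linear interpolation. GI50 is the concentration that inhibits growth by half.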 Active and inactive are the calls of the source. Rule as the data show it: active = GI50 up to about 1.1 µM and inactive = higher. Where only a bound is given, the exact number is not on record here.

Test in all cases: inhibition of tumour cell growth, NCI panel, 48 h
For assay [1], the system named is SF-539.
Assay [2] concerns K562.
The test system of assay [3] is HCC 2998.
The subject of assay [4] is SF-295.
Assay [5] relates to SK-MEL-28.
Assay [6] concerns SK-MEL-5.
Assay [7] concerns HCT-116.
Assay [8] has as its system IGROV-1.
Assay [9] has as its system NCI-H226.
In assay [10] the test system is NCI-H460.
Assay [11] concerns HCT-15.
For assay [12], the system named is A498.
Assay [13] has as its system UO-31.
Assay [14] has as its system NCI/ADR-RES.
Assay [15] concerns MDA-MB-435.
In assay [16] the test system is MCF7.
In assay [17] the test system is MDA-MB-231.
The test system of assay [18] is MDA-N.
For assay [19], the system named is BT-549.
In assay [20] the test system is PC-3.

`CCOC(=O)C1=C(C)N(NC(=O)c2ccccc2)C2(O)CCCC12C(=O)OCC` (stereo not drawn): the GI50 in [1], in assay [2], in assay [3], in [4], in [5] and in assay [6] was > 100 µM (inactive) each time. Further, the GI50 in assay [7] is > 100 µM (inactive); in [8], > 100 µM (inactive); in assay [9], > 100 µM (inactive); in assay [10] it was > 100 µM (inactive); in [11], greater than 100 µM; in assay [12], > 100 µM (inactive). Further, in assay [13], the GI50 was > 100 µM (inactive).
Turning to `CCOP(=O)(OCC)/C(C#N)=C/c1ccccn1`, the GI50 in assay [1], in assay [2], in assay [3], in assay [4], in assay [5] and in [6] was > 100 µM (inactive) in each case. For the same molecule, the GI50 in [7], in assay [8], in assay [9], in [10], in assay [14] and in [15] was > 100 µM (inactive) in each case. Besides, the GI50 in [16] is > 100 µM (inactive); in assay [11], greater than 100 µM; in [12] it was > 100 µM (inactive); in assay [17], > 100 µM (inactive); in assay [18], > 100 µM (inactive).
In the case of `CCCCCCCCCCCCCCCC(=O)OCC1OC(OC)C2NP(=O)(N(CCCl)CCCl)OC1C2O` (stereo not drawn), the GI50 is 0.887 µM (active) in assay [1]; 2.36 µM (inactive) in assay [2]; 2.54 µM (inactive) in [3]; 4.48 µM (inactive) in assay [4]; 22.2 µM (inactive) in assay [5]; 7.53 µM (inactive) in [6]. The GI50 is 3.3 µM (inactive) in assay [7]; 19 µM (inactive) in assay [8]; 2.3 µM (inactive) in assay [19]; 10.9 µM (inactive) in [9]; 0.54 µM (active) in assay [10]; 7.55 µM (inactive) in assay [15]. Moreover, the GI50 in [20] was 2.5 µM (inactive); in assay [16], 0.366 µM (active); in assay [11], 3.14 µM; in [12], 10.6 µM (inactive); in assay [13] it was 7.36 µM (inactive).
For `CC(C)=C1C(=O)C[C@]2(C)C[C@H]3/C(=C(/C)CCC12)CC[C@@]3(C)O` (stereo partly drawn), the GI50 was > 50 µM (inactive) in assay [1]; 22.2 µM (inactive) in assay [2]; > 50 µM (inactive) in [3]; > 50 µM (inactive) in [4]; > 50 µM (inactive) in assay [5]; 40.4 µM (inactive) in assay [6]. Moreover, the GI50 was 46.2 µM (inactive) in assay [7]; > 50 µM (inactive) in assay [8]; > 50 µM (inactive) in assay [19]; > 50 µM (inactive) in [9]; > 50 µM (inactive) in assay [14]; > 50 µM (inactive) in [15]. For the same molecule, the GI50 was 30.7 µM (inactive) in [20]; > 50 µM (inactive) in assay [16]; 40.1 µM in [11]; > 50 µM (inactive) in assay [12]; > 50 µM (inactive) in assay [13]; > 50 µM (inactive) in assay [17].
Regarding `O/N=C1/COC(C(F)(F)F)(C(F)(F)F)C1`, the GI50 in assay [1], in assay [3], in [4], in assay [5], in assay [6] and in assay [7] was > 100 µM (inactive) each time. Moreover, the GI50 in assay [8], in assay [9], in assay [10], in assay [14], in assay [15] and in assay [20] was > 100 µM (inactive) in each case. The GI50 in assay [16] is > 100 µM (inactive); in [11], greater than 100 µM; in assay [12], > 100 µM (inactive); in [13], > 100 µM (inactive); in assay [17], > 100 µM (inactive).
Turning to `COC(=O)C1=Cc2cc(OC)c(O)cc2[C@@H](c2ccc(O)c(OC)c2)[C@@H]1C(=O)OC`, the GI50 in assay [1] is > 100 µM (inactive); in assay [2], 57.3 µM (inactive); in assay [3] it was > 100 µM (inactive); in [4], > 100 µM (inactive); in assay [5] it was > 100 µM (inactive); in assay [6], 43.9 µM (inactive). Besides, the GI50 in assay [7] is > 100 µM (inactive); in assay [8] it was > 100 µM (inactive); in assay [9], > 100 µM (inactive); in [10] it was > 100 µM (inactive); in [14], > 100 µM (inactive); in assay [15], 45.5 µM (inactive). In addition, the GI50 in assay [20] is > 100 µM (inactive); in assay [16] it was > 100 µM (inactive); in assay [11], greater than 100 µM; in assay [12], > 100 µM (inactive); in [13] it was 10.5 µM (inactive); in assay [17] it was 39.2 µM (inactive). For the same molecule, in assay [18], the GI50 is 36.9 µM (inactive).
Regarding `COC(=O)[C@@H](NC1(c2ccccc2)c2ccccc2-c2ccccc21)[C@H](OC(=O)[C@H]1CCCN1S(=O)(=O)c1ccccc1)C(=O)OC`, the GI50 in assay [1], in assay [2], in assay [3], in [4], in assay [5] and in assay [6] was > 100 µM (inactive) in each case. For the same molecule, the GI50 in assay [7], in [8], in [9], in assay [10], in [14] and in assay [15] was > 100 µM (inactive) throughout. Further, the GI50 is > 100 µM (inactive) in assay [20]; > 100 µM (inactive) in assay [16]; greater than 100 µM in [11]; > 100 µM (inactive) in [12]; > 100 µM (inactive) in assay [13]; > 100 µM (inactive) in assay [17]. Also, the GI50 in assay [18] was 72.9 µM (inactive).
Turning to `CCOC(=O)C(NC(=O)c1nc[nH]c1/N=N/N(C)C)C(C)C` (stereo not drawn), the GI50 in assay [1], in assay [2], in [3], in [4], in [5] and in [6] was > 100 µM (inactive) throughout. The GI50 in [7] was > 100 µM (inactive); in [8], > 100 µM (inactive); in assay [9], > 100 µM (inactive); in assay [10], > 100 µM (inactive); in assay [11] it was greater than 100 µM; in assay [12], > 100 µM (inactive). The GI50 in assay [13] is > 100 µM (inactive).
